Laboratory results taken from patent US20250147039A1, “Compounds for complexation of rare earth elements and/or s-, p-, d- block metals, their coordination compounds, peptide conjugates, method of their preparation and use thereof” (USTAV ORGANICKE CHEMIE A BIOCHEMIE AV CR V.V.I., priority 2021, published 2025).

Key:
[1] = Formation of 1,5-cz-[M(Lig)] from Lig and M^III ions (metal dependent click-zip) (Charts 4, 5); format: physicochemical; settings: MOPS/NaOH buffer pH 7.0; for conversion to 1,5-cz-[M(Lig)], Sc^III / conversion to 1,5-cz-[M(Lig)], Y^III: TD728, TD827 in 50% i-PrOH; for conversion to 1,5-cz-[M(Lig)], Y^III: TD714 sum of two diastereoisomers
[2] = Formation of 1,5-cz-[Ln(Lig)] from Lig and Ln^III ions (metal dependent click-zip), MOPS/NaOH buffer pH 7.0, analytical HPLC (Charts 1, 2); settings: MOPS/NaOH buffer pH 7.0

| Compound | conversion to 1,5-cz-[M(Lig)], Sc^III ([1]; 1 week at 80° C.) [%] | conversion to 1,5-cz-[M(Lig)], Y^III ([1]; 1 week at 80° C.) [%] | conversion to 1,5-cz-[M(Lig)], Sc^III ([1]; 1 hour at 80° C.) [%] | conversion to 1,5-cz-[M(Lig)], Y^III ([1]; 1 hour at 80° C.) [%] | conversion to 1,5-cz-[Ln(Lig)], Ce^III ([2]; after 1 hour at 80° C.) [%] | conversion to 1,5-cz-[Ln(Lig)], Dy^III ([2]; after 1 week at 80° C.) [%] | conversion to 1,5-cz-[Ln(Lig)], Dy^III ([2]; after 1 hour at 80° C.) [%] | conversion to 1,5-cz-[Ln(Lig)], Er^III ([2]; after 1 week at 80° C.) [%] | conversion to 1,5-cz-[Ln(Lig)], Er^III ([2]; after 1 hour at 80° C.) [%] | conversion to 1,5-cz-[Ln(Lig)], Eu^III ([2]; after 1 week at 80° C.) [%] | conversion to 1,5-cz-[Ln(Lig)], Eu^III ([2]; after 1 hour at 80° C.) [%] | conversion to 1,5-cz-[Ln(Lig)], Gd^III ([2]; after 1 week at 80° C.) [%] | conversion to 1,5-cz-[Ln(Lig)], Gd^III ([2]; after 1 hour at 80° C.) [%] | conversion to 1,5-cz-[Ln(Lig)], Ho^III ([2]; after 1 week at 80° C.) [%] | conversion to 1,5-cz-[Ln(Lig)], Ho^III ([2]; after 1 hour at 80° C.) [%] | conversion to 1,5-cz-[Ln(Lig)], Lu^III ([2]; after 1 week at 80° C.) [%] | conversion to 1,5-cz-[Ln(Lig)], Lu^III ([2]; after 1 hour at 80° C.) [%] | conversion to 1,5-cz-[Ln(Lig)], Sm^III ([2]; after 1 week at 80° C.) [%] | conversion to 1,5-cz-[Ln(Lig)], Sm^III ([2]; after 1 hour at 80° C.) [%] | conversion to 1,5-cz-[Ln(Lig)], Tb^III ([2]; after 1 hour at 80° C.) [%] | further results |
| --- | --- | --- | --- | --- | --- | --- | --- | --- | --- | --- | --- | --- | --- | --- | --- | --- | --- | --- | --- | --- | --- |
| C#CCN(CC#C)CCN1CCN(CC(=O)O)CCN(Cc2cc(-c3ccccc3)cc(CN=[N+]=[N-])n2)CCN(CC(=O)O)CC1 [TD669] | 0 | 12 | 0 | 0 | 0 | 20 | 0 | 12 | 0 | 25 | 0 | 24 | 0 | 14 | 0 | 7 | 0 | 33 | 0 | 0 | conversion to 1,5-cz-[Ln(Lig)], La^III ([2]; after 1 hour at 80° C.): 0%; conversion to 1,5-cz-[Ln(Lig)], Nd^III ([2]; after 1 hour at 80° C.): 0%; conversion to 1,5-cz-[Ln(Lig)], Pr^III ([2]; after 1 hour at 80° C.): 0%; conversion to 1,5-cz-[Ln(Lig)], Tm^III ([2]; after 1 week at 80° C.): 11%; conversion to 1,5-cz-[Ln(Lig)], Tm^III ([2]; after 1 hour at 80° C.): 0%; conversion to 1,5-cz-[Ln(Lig)], Yb^III ([2]; after 1 week at 80° C.): 10%; conversion to 1,5-cz-[Ln(Lig)], Yb^III ([2]; after 1 hour at 80° C.): 0% |
| [N-]=[N+]=NCc1cccc(CN2CCN(CC(=O)O)CCN(Cc3cccc(C#CC4CCNCC4)n3)CCN(CC(=O)O)CC2)n1 [TD1127] | 29 | 83 | 0 | 2 | 0 | 80 | 2 | 91 | 4 | 53 | 1 | 56 | 1 | 86 | 3 | 97 | 13 | 46 | 0 | 1 | conversion to 1,5-cz-[Ln(Lig)], Ce^III ([2]; after 1 week at 80° C.): 7%; conversion to 1,5-cz-[Ln(Lig)], La^III ([2]; after 1 week at 80° C.): 18%; conversion to 1,5-cz-[Ln(Lig)], La^III ([2]; after 1 hour at 80° C.): 0%; conversion to 1,5-cz-[Ln(Lig)], Nd^III ([2]; after 1 week at 80° C.): 25%; conversion to 1,5-cz-[Ln(Lig)], Nd^III ([2]; after 1 hour at 80° C.): 0%; conversion to 1,5-cz-[Ln(Lig)], Pr^III ([2]; after 1 week at 80° C.): 15%; conversion to 1,5-cz-[Ln(Lig)], Pr^III ([2]; after 1 hour at 80° C.): 0%; conversion to 1,5-cz-[Ln(Lig)], Tb^III ([2]; after 1 week at 80° C.): 72%; conversion to 1,5-cz-[Ln(Lig)], Tm^III ([2]; after 1 week at 80° C.): 93%; conversion to 1,5-cz-[Ln(Lig)], Tm^III ([2]; after 1 hour at 80° C.): 7%; conversion to 1,5-cz-[Ln(Lig)], Yb^III ([2]; after 1 week at 80° C.): 95%; conversion to 1,5-cz-[Ln(Lig)], Yb^III ([2]; after 1 hour at 80° C.): 10% |
| C#Cc1cccc(CN2CCN(CC(=O)O)CCN(Cc3cc(C(=O)OC(C)(C)C)cc(CN=[N+]=[N-])n3)CCN(CC(=O)O)CC2)n1 [TD1160] | – | 0 | – | 1 | – | – | – | – | – | – | – | – | – | – | – | 0 | 3 | 0 | 0 | 0 | conversion to 1,5-cz-[Ln(Lig)] with hydrolysed group in the side chain, Y^III ([1]; 1 week at 80° C.): 90%; conversion to 1,5-cz-[Ln(Lig)] with hydrolysed group in the side chain, Y^III ([1]; 1 hour at 80° C.): 17%; conversion to 1,5-cz-[Ln(Lig)] with hydrolysed group in the side chain, Lu^III ([2]; after 1 week at 80° C.): 91%; conversion to 1,5-cz-[Ln(Lig)] with hydrolysed group in the side chain, Lu^III ([2]; after 1 hour at 80° C.): 61%; conversion to 1,5-cz-[Ln(Lig)] with hydrolysed group in the side chain, Sm^III ([2]; after 1 week at 80° C.): 85%; conversion to 1,5-cz-[Ln(Lig)] with hydrolysed group in the side chain, Sm^III ([2]; after 1 hour at 80° C.): 3%; conversion to 1,5-cz-[Ln(Lig)] with hydrolysed group in the side chain, Tb^III ([2]; after 1 week at 80° C.): 89%; conversion to 1,5-cz-[Ln(Lig)], Tb^III ([2]; after 1 week at 80° C.): 0%; conversion to 1,5-cz-[Ln(Lig)] with hydrolysed group in the side chain, Tb^III ([2]; after 1 hour at 80° C.): 9% |

Second part, led by results:

| conversion to 1,5-cz-[M(Lig)], Sc^III ([1]; 1 week at 80° C.) [%] | conversion to 1,5-cz-[M(Lig)], Y^III ([1]; 1 week at 80° C.) [%] | conversion to 1,5-cz-[M(Lig)], Sc^III ([1]; 1 hour at 80° C.) [%] | conversion to 1,5-cz-[M(Lig)], Y^III ([1]; 1 hour at 80° C.) [%] | conversion to 1,5-cz-[Ln(Lig)], Ce^III ([2]; after 1 hour at 80° C.) [%] | conversion to 1,5-cz-[Ln(Lig)], Dy^III ([2]; after 1 week at 80° C.) [%] | conversion to 1,5-cz-[Ln(Lig)], Dy^III ([2]; after 1 hour at 80° C.) [%] | conversion to 1,5-cz-[Ln(Lig)], Er^III ([2]; after 1 week at 80° C.) [%] | conversion to 1,5-cz-[Ln(Lig)], Er^III ([2]; after 1 hour at 80° C.) [%] | conversion to 1,5-cz-[Ln(Lig)], Eu^III ([2]; after 1 week at 80° C.) [%] | conversion to 1,5-cz-[Ln(Lig)], Eu^III ([2]; after 1 hour at 80° C.) [%] | conversion to 1,5-cz-[Ln(Lig)], Gd^III ([2]; after 1 week at 80° C.) [%] | conversion to 1,5-cz-[Ln(Lig)], Gd^III ([2]; after 1 hour at 80° C.) [%] | conversion to 1,5-cz-[Ln(Lig)], Ho^III ([2]; after 1 week at 80° C.) [%] | conversion to 1,5-cz-[Ln(Lig)], Ho^III ([2]; after 1 hour at 80° C.) [%] | conversion to 1,5-cz-[Ln(Lig)], Lu^III ([2]; after 1 week at 80° C.) [%] | conversion to 1,5-cz-[Ln(Lig)], Lu^III ([2]; after 1 hour at 80° C.) [%] | conversion to 1,5-cz-[Ln(Lig)], Sm^III ([2]; after 1 week at 80° C.) [%] | conversion to 1,5-cz-[Ln(Lig)], Sm^III ([2]; after 1 hour at 80° C.) [%] | conversion to 1,5-cz-[Ln(Lig)], Tb^III ([2]; after 1 hour at 80° C.) [%] | Compound | further results |
| --- | --- | --- | --- | --- | --- | --- | --- | --- | --- | --- | --- | --- | --- | --- | --- | --- | --- | --- | --- | --- | --- |
| 52 | 94 | 7 | 22 | 1 | 93 | 15 | 94 | 34 | 89 | 4 | 91 | 5 | 94 | 22 | 94 | 66 | 87 | 3 | 9 | C#Cc1cccc(CN2CCN(CC(=O)O)CCN(Cc3cc(-c4ccc(C(=O)O)cc4)cc(CN=[N+]=[N-])n3)CCN(CC(=O)O)CC2)n1 [TD742] | conversion to 1,5-cz-[Ln(Lig)], Ce^III ([2]; after 1 week at 80° C.): 43%; conversion to 1,5-cz-[Ln(Lig)], La^III ([2]; after 1 week at 80° C.): 40%; conversion to 1,5-cz-[Ln(Lig)], La^III ([2]; after 1 hour at 80° C.): 1%; conversion to 1,5-cz-[Ln(Lig)], Nd^III ([2]; after 1 week at 80° C.): 76%; conversion to 1,5-cz-[Ln(Lig)], Nd^III ([2]; after 1 hour at 80° C.): 1%; conversion to 1,5-cz-[Ln(Lig)], Pr^III ([2]; after 1 week at 80° C.): 66%; conversion to 1,5-cz-[Ln(Lig)], Pr^III ([2]; after 1 hour at 80° C.): 1%; conversion to 1,5-cz-[Ln(Lig)], Tb^III ([2]; after 1 week at 80° C.): 93%; conversion to 1,5-cz-[Ln(Lig)], Tm^III ([2]; after 1 week at 80° C.): 94%; conversion to 1,5-cz-[Ln(Lig)], Tm^III ([2]; after 1 hour at 80° C.): 48%; conversion to 1,5-cz-[Ln(Lig)], Yb^III ([2]; after 1 week at 80° C.): 93%; conversion to 1,5-cz-[Ln(Lig)], Yb^III ([2]; after 1 hour at 80° C.): 55% |
| 61 | 80 | 4 | 16 | 0 | 70 | 10 | 88 | 26 | 28 | 3 | 33 | 3 | 79 | 16 | 98 | 63 | 22 | 2 | 6 | CC(C)(N)C#Cc1cccc(CN2CCN(CC(=O)O)CCN(Cc3cc(-c4ccccc4)cc(CN=[N+]=[N-])n3)CCN(CC(=O)O)CC2)n1 [TD1054] | conversion to 1,5-cz-[Ln(Lig)], Ce^III ([2]; after 1 week at 80° C.): 4%; conversion to 1,5-cz-[Ln(Lig)], La^III ([2]; after 1 week at 80° C.): 4%; conversion to 1,5-cz-[Ln(Lig)], La^III ([2]; after 1 hour at 80° C.): 0%; conversion to 1,5-cz-[Ln(Lig)], Nd^III ([2]; after 1 week at 80° C.): 11%; conversion to 1,5-cz-[Ln(Lig)], Nd^III ([2]; after 1 hour at 80° C.): 1%; conversion to 1,5-cz-[Ln(Lig)], Pr^III ([2]; after 1 week at 80° C.): 10%; conversion to 1,5-cz-[Ln(Lig)], Pr^III ([2]; after 1 hour at 80° C.): 0%; conversion to 1,5-cz-[Ln(Lig)], Tb^III ([2]; after 1 week at 80° C.): 55%; conversion to 1,5-cz-[Ln(Lig)], Tm^III ([2]; after 1 week at 80° C.): 94%; conversion to 1,5-cz-[Ln(Lig)], Tm^III ([2]; after 1 hour at 80° C.): 39%; conversion to 1,5-cz-[Ln(Lig)], Yb^III ([2]; after 1 week at 80° C.): 97%; conversion to 1,5-cz-[Ln(Lig)], Yb^III ([2]; after 1 hour at 80° C.): 53% |
